Assay results taken from patent publication US20110224210A1, “NOVEL BIS-AMIDES AS ANTI-MALARIAL AGENTS” (priority 2008, published 2011).

system: P. falciparum K1 (strain resistant to chloroquine and pyrimethamine), erythrocytic stages; assay: Plasmodium falciparum in vitro assay, [3H] hypoxanthine incorporation; format: cell-based; details: Plasmodium falciparum, K1, P. falciparum strain K1; [3H] hypoxanthine incorporation; read-out: IC50 (nM) on K1
Method in brief: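 K1 strain parasites grown in human red cells, 2.5% haematocrit, 0.3% parasitaemia, 37 °C, 4% CO2/3% O2; compounds in seven serial doubling dilutions.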

Row | Compound | IC50
1 | COCCN(C)C(=O)[C@H](Cc1ccccc1)N(Cc1ccc(N2CCOCC2)nc1)C(=O)C=Cc1ccc(OC)cc1 [Example 159, (S)-N-{1-[(2-Methoxy-ethyl)-methyl-carbamoyl]-2-phenyl-ethyl}-3-(4-methoxy-phenyl)-N-(6-morpholin-4-yl-pyridin-3-ylmethyl)-acrylamide] | 49 nM
2 | COCCN(C)C(=O)[C@H](Cc1ccccc1)N(Cc1ccccc1)C(=O)C=Cc1ccc(C)cc1 [Example 160, (S)-N-Benzyl-N-{1-[(2-methoxy-ethyl)-methyl-carbamoyl]-2-phenyl-ethyl}-3-p-tolyl-acrylamide] | 93 nM
3 | CCc1ccc(CN(C(=O)C=Cc2ccc(C)cc2)[C@@H](Cc2ccccc2)C(=O)N(C)CCOC)cc1 [Example 161, (S)-N-(4-Ethyl-benzyl)-N-{1-[(2-methoxy-ethyl)-methyl-carbamoyl]-2-phenyl-ethyl}-3-p-tolyl-acrylamide] | 49 nM
4 | COCCN(C)C(=O)[C@H](Cc1ccccc1)N(Cc1ccccn1)C(=O)C=Cc1ccc(C)cc1 [Example 162, (S)-N-{1-[(2-Methoxy-ethyl)-methyl-carbamoyl]-2-phenyl-ethyl}-N-pyridin-2-ylmethyl-3-p-tolyl-acrylamide] | 45 nM
5 | COCCN(C)C(=O)[C@H](Cn1cccc1)N(Cc1ccc(-c2ccccn2)cc1)C(=O)C=Cc1ccc(C(F)(F)F)cc1 [Example 163, (S)-N-{1-[(2-Methoxy-ethyl)-methyl-carbamoyl]-2-pyrrol-1-yl-ethyl}-N-(4-pyridin-2-yl-benzyl)-3-(4-trifluoromethyl-phenyl)-acrylamide] | 37 nM
6 | CN(C)CCN(C)C(=O)[C@H](Cc1ccccc1)N(Cc1ccc(-c2ccccn2)cc1)C(=O)C=Cc1ccc(C(F)(F)F)cc1 [Example 171, (S)-N-{1-[(2-Dimethylamino-ethyl)-methyl-carbamoyl]-2-phenyl-ethyl}-N-(4-pyridin-2-yl-benzyl)-3-(4-trifluoromethyl-phenyl)-acrylamide] | 80 nM
7 | CN(C(=O)[C@H](Cc1ccccc1)N(Cc1ccc(-c2ccccn2)cc1)C(=O)C=Cc1ccc(C(F)(F)F)cc1)[C@H]1CCN(Cc2ccccc2)C1 [Example 172, N-{1-[((S)-1-Benzyl-pyrrolidin-3-yl)-methyl-carbamoyl]-(S)-2-phenyl-ethyl}-N-(4-pyridin-2-yl-benzyl)-3-(4-trifluoromethyl-phenyl)-acrylamide] | 89 nM
8 | CN(C(=O)[C@H](Cc1ccccc1)N(Cc1ccc(-c2ccccn2)cc1)C(=O)C=Cc1ccc(C(F)(F)F)cc1)[C@@H]1CCN(Cc2ccccc2)C1 [Example 173, N-{1-[((R)-1-Benzyl-pyrrolidin-3-yl)-methyl-carbamoyl]-(S)-2-phenyl-ethyl}-N-(4-pyridin-2-yl-benzyl)-3-(4-trifluoromethyl-phenyl)-acrylamide] | 52 nM
9 | CN(C)CCN(Cc1ccccc1)C(=O)[C@H](Cc1ccccc1)N(Cc1ccc(-c2ccccn2)cc1)C(=O)C=Cc1ccc(C(F)(F)F)cc1 [Example 174] | 430 nM
10 | CN(CCO)C(=O)[C@H](Cc1ccccc1)N(Cc1ccc(N2CCOCC2)cc1)C(=O)C=Cc1ccc(C(F)(F)F)cc1 [Example 175, (S)-N-{1-[(2-Hydroxy-ethyl)-methyl-carbamoyl]-2-phenyl-ethyl}-N-(4-morpholin-4-yl-benzyl)-3-(4-trifluoromethyl-phenyl)-acrylamide] | 88 nM
11 | CC(=O)N1CCN(c2ccc(CN(C(=O)C=Cc3ccc(C(F)(F)F)cc3)[C@@H](Cc3ccccc3)C(=O)N(C)CCO)cc2)CC1 [Example 176, (S)-N-[4-(4-Acetyl-piperazin-1-yl)-benzyl]-N-{1-[(2-hydroxy-ethyl)-methyl-carbamoyl]-2-phenyl-ethyl}-3-(4-trifluoromethyl-phenyl)-acrylamide] | 51 nM
12 | COc1ccc(CN(C)C(=O)[C@H](Cc2ccccc2)N(Cc2ccc(N3CCOCC3)cc2)C(=O)C=Cc2ccc(C(F)(F)F)nc2)cc1 [Example 177, (S)-N-{1-[(4-Methoxy-benzyl)-methyl-carbamoyl]-2-phenyl-ethyl}-N-(4-morpholin-4-yl-benzyl)-3-(6-trifluoromethyl-pyridin-3-yl)-acrylamide] | 84 nM
13 | CC(=O)N1CCN(c2ccc(CN(C(=O)C=Cc3ccc(C(F)(F)F)cc3)[C@@H](Cc3ccccc3)C(=O)N(C)CCOc3ncccn3)cc2)CC1 [Example 180, (S)-N-[4-(4-Acetyl-piperazin-1-yl)-benzyl]-N-(1-{methyl-[2-(pyrimidin-2-yloxy)-ethyl]-carbamoyl}-2-phenyl-ethyl)-3-(4-trifluoromethyl-phenyl)-acrylamide] | 38 nM
14 | CC(=O)N1CCN(c2ccc(CN(C(=O)C=Cc3ccc(C(F)(F)F)cc3)[C@@H](Cc3ccccc3)C(=O)N(C)CCOCc3ccc(C)cc3C)cc2)CC1 [Example 183, (S)-N-[4-(4-Acetyl-piperazin-1-yl)-benzyl]-N-(1-{[2-(2,4-dimethyl-benzyloxy)-ethyl]-methyl-carbamoyl}-2-phenyl-ethyl)-3-(4-trifluoromethyl-phenyl)-acrylamide, formic acid] | 60 nM
15 | CC(=O)N1CCN(c2ccc(CN(C(=O)C=Cc3ccc(C(F)(F)F)cc3)[C@@H](Cc3ccccc3)C(=O)N(C)CCOCc3cccc(OC(F)(F)F)c3)cc2)CC1 [Example 186, (S)-N-[4-(4-Acetyl-piperazin-1-yl)-benzyl]-N-(1-{methyl-[2-(3-trifluoromethoxy-benzyloxy)-ethyl]-carbamoyl}-2-phenyl-ethyl)-3-(4-trifluoromethyl-phenyl)-acrylamide, formic acid] | 58 nM
16 | CC(=O)N1CCN(c2ccc(CN(C(=O)C=Cc3ccc(C(F)(F)F)cc3)[C@@H](Cc3ccccc3)C(=O)N(C)CCOCc3ccc(OC(F)F)cc3)cc2)CC1 [Example 188, (S)-N-[4-(4-Acetyl-piperazin-1-yl)-benzyl]-N-(1-{[2-(4-difluoromethoxy-benzyloxy)-ethyl]-methyl-carbamoyl}-2-phenyl-ethyl)-3-(4-trifluoromethyl-phenyl)-acrylamide, formic acid] | 53 nM

Stronger by IC50, values ahead:

Row | IC50 | Compound
17 | 24 nM | COCCN(C)C(=O)[C@H](Cc1ccccc1)N(Cc1ccc(N2CCOCC2)nc1)C(=O)C=Cc1ccc(C)cc1 [Example 158, (S)-N-{1-[(2-Methoxy-ethyl)-methyl-carbamoyl]-2-phenyl-ethyl}-N-(6-morpholin-4-yl-pyridin-3-ylmethyl)-3-p-tolyl-acrylamide]
18 | 19 nM | CC(=O)N1CCN(c2ccc(CN(C(=O)C=Cc3ccc(C(F)(F)F)cc3)[C@@H](Cc3ccccc3)C(=O)N(C)CCOCc3cccc(C#N)c3)cc2)CC1 [Example 185, (S)-N-[4-(4-Acetyl-piperazin-1-yl)-benzyl]-N-(1-{[2-(3-cyano-benzyloxy)-ethyl]-methyl-carbamoyl}-2-phenyl-ethyl)-3-(4-trifluoromethyl-phenyl)-acrylamide, formic acid]
19 | 18 nM | CN(CCOCc1ccccc1)C(=O)[C@H](Cc1ccccc1)N(Cc1ccc(N2CCOCC2)cc1)C(=O)C=Cc1ccc(C(F)(F)F)cc1 [Example 182, (S)-N-{1-[(2-Benzyloxy-ethyl)-methyl-carbamoyl]-2-phenyl-ethyl}-N-(4-morpholin-4-yl-benzyl)-3-(4-trifluoromethyl-phenyl)-acrylamide]
20 | 13 nM | COc1ccc(COCCN(C)C(=O)[C@H](Cc2ccccc2)N(Cc2ccc(N3CCN(C(C)=O)CC3)cc2)C(=O)C=Cc2ccc(C(F)(F)F)cc2)cc1F [Example 184, (S)-N-[4-(4-Acetyl-piperazin-1-yl)-benzyl]-N-(1-{[2-(3-fluoro-4-methoxy-benzyloxy)-ethyl]-methyl-carbamoyl}-2-phenyl-ethyl)-3-(4-trifluoromethyl-phenyl)-acrylamide, formic acid]
21 | 10 nM | COCCN(C)C(=O)[C@H](Cc1ccccc1)N(Cc1ccc(N2CCOCC2)nc1)C(=O)C=Cc1ccc(C(F)(F)F)cc1 [Example 157, (S)-N-{1-[(2-Methoxy-ethyl)-methyl-carbamoyl]-2-phenyl-ethyl}-N-(6-morpholin-4-yl-pyridin-3-ylmethyl)-3-(4-trifluoromethyl-phenyl)-acrylamide]
22 | 10 nM | COCCN(C)C(=O)[C@H](Cc1ccccc1)N(Cc1ccc(N2CCN(C(C)=O)CC2)cc1)C(=O)C=Cc1ccc(C(F)(F)F)cc1 [Example 178, (S)-N-[4-(4-Acetyl-piperazin-1-yl)-benzyl]-N-{1-[(2-methoxy-ethyl)-methyl-carbamoyl]-2-phenyl-ethyl}-3-(4-trifluoromethyl-phenyl)-acrylamide]
23 | 10 nM | CC(=O)N1CCN(c2ccc(CN(C(=O)C=Cc3ccc(C(F)(F)F)cc3)[C@@H](Cc3ccccc3)C(=O)N(C)CCOCc3ccccc3)cc2)CC1 [Example 181, (S)-N-[4-(4-Acetyl-piperazin-1-yl)-benzyl]-N-{1-[(2-benzyloxy-ethyl)-methyl-carbamoyl]-2-phenyl-ethyl}-3-(4-trifluoromethyl-phenyl)-acrylamide]
24 | 9 nM | COCCN(C)C(=O)[C@H](Cc1ccccc1)N(Cc1ccc(N2CCOCC2)cc1)C(=O)C=Cc1ccc(C(F)(F)F)cc1 [Example 179, (S)-N-{1-[(2-Methoxy-ethyl)-methyl-carbamoyl]-2-phenyl-ethyl}-N-(4-morpholin-4-yl-benzyl)-3-(4-trifluoromethyl-phenyl)-acrylamide, formic acid]
25 | 9 nM | CC(=O)N1CCN(c2ccc(CN(C(=O)C=Cc3ccc(C(F)(F)F)cc3)[C@@H](Cc3ccccc3)C(=O)N(C)CCOCc3ccc4c(c3)nnn4C)cc2)CC1 [Example 189, (S)-N-[4-(4-Acetyl-piperazin-1-yl)-benzyl]-N-(1-{methyl-[2-(1-methyl-1H-benzotriazol-5-ylmethoxy)-ethyl]-carbamoyl}-2-phenyl-ethyl)-3-(4-trifluoromethyl-phenyl)-acrylamide, formic acid]
26 | 7 nM | COc1cccc(COCCN(C)C(=O)[C@H](Cc2ccccc2)N(Cc2ccc(N3CCN(C(C)=O)CC3)cc2)C(=O)C=Cc2ccc(C(F)(F)F)cc2)c1 [Example 187, (S)-N-[4-(4-Acetyl-piperazin-1-yl)-benzyl]-N-(1-{[2-(3-methoxy-benzyloxy)-ethyl]-methyl-carbamoyl}-2-phenyl-ethyl)-3-(4-trifluoromethyl-phenyl)-acrylamide, formic acid]
